Consider 49 compounds from patent US8163737B2 (Vertex Pharmaceuticals Incorporated, priority 2006, dated 2012).

Some results are limits rather than exact numbers.

By Ki is commonly meant the equilibrium dissociation constant of an inhibitor or competing ligand from its target. By IC50 is commonly meant the midpoint of a concentration-inhibition curve.

T1 sequence (Q16602 23-461): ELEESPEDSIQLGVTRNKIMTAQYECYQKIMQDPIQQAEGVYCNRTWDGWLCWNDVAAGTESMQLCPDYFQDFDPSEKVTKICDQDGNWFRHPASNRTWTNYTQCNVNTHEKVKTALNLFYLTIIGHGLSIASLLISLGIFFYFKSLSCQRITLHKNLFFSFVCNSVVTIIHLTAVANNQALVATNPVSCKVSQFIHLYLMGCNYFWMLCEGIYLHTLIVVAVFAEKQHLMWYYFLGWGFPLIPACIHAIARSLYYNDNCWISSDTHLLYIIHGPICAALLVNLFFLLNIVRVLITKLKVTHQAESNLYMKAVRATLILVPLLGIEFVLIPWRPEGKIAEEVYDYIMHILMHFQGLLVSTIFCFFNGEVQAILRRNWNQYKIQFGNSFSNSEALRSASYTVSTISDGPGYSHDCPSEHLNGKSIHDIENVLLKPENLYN
T1 sequence (O60894 27-148): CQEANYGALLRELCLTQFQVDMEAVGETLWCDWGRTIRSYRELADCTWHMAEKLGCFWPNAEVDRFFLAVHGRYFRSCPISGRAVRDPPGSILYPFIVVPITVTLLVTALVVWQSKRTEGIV

One assay concerns the target T1, CGRP receptor (SK-N-MC membrane) (Homo sapiens, UniProt O60894+Q16602).
T1 construct: Purified SK-N-MC membrane was purchased from Perkin Elmer; purchased Perkin Elmer; host or cells: SK-N-MC membrane
Nature of the assay: I125-CGRP binding displacement assay on purified SK-N-MC membrane.
Conditions: not given
The procedure: Purified SK-N-MC membrane was purchased from Perkin Elmer. The membrane was thawed quickly and placed on ice. The compounds were diluted with CGRP binding solution (25 mM Tris-HCl, pH7.4, 5 mM MgCl2, 0.1% BSA and 0.05% Tween). The membrane was diluted 1:20 with the binding solution and homogenized with Tissue Matster-50 Homogenizer (Omni International) for 30 sec. The homogenized membrane was added to compounds in the binding solution. […] After 2 hour incubation at room temperature, the reaction was stopped by rapid filtration through 0.5% PEI treated GF/C filter plate (Perkin Elmer) and the filter plate was washed with ice-cold washing solution (50 mM Tris HCl, pH7.4, 5 mM MgCl2 and 0.1% BSA) using cell harvestor (Tomtec). The radioactivity of the filter plates were read on Topcount (Packard). The nonspecific binding was determined in the control reaction where 1 uM unlabelled CGRP was preincubated with the membrane prior to I125-CGRP addition. The total binding was determined in the control reaction of the membrane and I125-CGRP in the absence of compound. The percent displacement of I125-CGRP with compounds was calculated using nonspecific and total binding controls. The curve fitting was carried out using MOD3.
Regarding `CC(C)CCN1C(=O)C(CC(=O)N2CCC(n3c(=O)[nH]c4ccccc43)CC2)S[C@H]1c1ccccc1N1CCC(O)CC1` (stereo partly shown) [Compound 304], the inhibition constant (Ki) is less than 1000 nM.

With `CN(C)[C@H]1CCN(c2ccccc2C2SC(CC(=O)N3CCC(n4c(=O)[nH]c5ncccc54)CC3)C(=O)N2CCC(C)(C)C)C1` (stereo partly shown) [Compound 406], the inhibition constant Ki is less than 1000 nM.

Another assay deals with endogenous CGRP receptor (Homo sapiens, UniProt O60894+Q16602). Put plainly: CGRP functional antagonism using SK-N-MC-BLA (4C10), β-lactamase transcriptional reporter assay. The format is cell-based. The conditions noted are these: SK-N-MC (4C10) cells, inhibition of β-lactamase expression in the presence of 200 pM CGRP. For orientation: Reporter assays use an easily measured gene product as a stand-in for the process of interest.
endogenous CGRP receptor, sequence (Q16602 23-461): as the sequence (Q16602 23-461) above
endogenous CGRP receptor, sequence (O60894 27-148): as the sequence (O60894 27-148) above
Take `CN1CCN(c2ccccc2[C@@H]2S[C@H](CC(=O)N3CCC(N4CCc5ccccc5NC4=O)CC3)C(=O)N2CCC(C)(C)C)CC1` [Compound 388]: the concentration for half-maximal inhibition (IC50) is more than 5000 nM.

Take `CC(C)(C)CCN1C(=O)C(CC(=O)N2CCC(n3c(=O)[nH]c4ncccc43)CC2)SC1c1cccc(F)c1N1CCN(C2CC2)CC1` (stereo not shown) [Compound 390]: the IC50 is more than 5000 nM.

On to `CC(C)(C)CCN1C(=O)C(CC(=O)N2CCC(N3CCc4ccccc4NC3=O)CC2)SC1c1cccc(F)c1N1CCN(CC(F)(F)F)CC1` (stereo not shown) [Compound 392], for which the IC50 is more than 5000 nM.

In the case of `CC(C)(C)CCN1C(=O)C(CC(=O)N2CCC(n3c(=O)[nH]c4ncccc43)CC2)SC1c1cccc(F)c1N1CCN(CC(F)(F)F)CC1` (stereo not shown) [Compound 393], the concentration for half-maximal inhibition (IC50) was less than 1000 nM.

As for `CC(C)N1CCN(c2c(F)cccc2[C@@H]2S[C@@H](CC(=O)N3CCC(N4CCc5ccccc5NC4=O)CC3)C(=O)N2CCC(C)(C)C)CC1` [Compound 395], the half-maximal inhibitory concentration (IC50) was more than 5000 nM.

Turning to `CC(C)N1CCN(c2c(F)cccc2[C@H]2S[C@@H](CC(=O)N3CCC(N4CCc5ccccc5NC4=O)CC3)C(=O)N2CCC(C)(C)C)CC1` [Compound 396], the 50% inhibitory concentration (IC50) lay in the range of 1000 to 5000 nM.

`CC(C)(C)CCN1C(=O)[C@H](CC(=O)N2CCC(N3CCc4ccccc4NC3=O)CC2)SC1c1cccc(F)c1N1CCNCC1` (stereo partly shown) [Compound 398]: the half-inhibitory concentration (IC50) is more than 5000 nM.

Regarding `CC(C)(C)CCN1C(=O)[C@H](CC(=O)N2CCC(N3CCc4ccccc4NC3=O)CC2)SC1c1cccc(F)c1N1CCNCC1` (stereo partly shown) [Compound 399], the half-maximal inhibitory concentration (IC50) is more than 5000 nM.

Take `CN(C)[C@H]1CCN(c2ccccc2C2SC(CC(=O)N3CCC(n4c(=O)[nH]c5ncccc54)CC3)C(=O)N2CCC(C)(C)C)C1` (stereo partly shown) [Compound 404]: the concentration for half-maximal inhibition (IC50) fell in the range of 1000 to 5000 nM.

For `CN(c1ccccc1C1SC(CC(=O)N2CCC(n3c(=O)[nH]c4ncccc43)CC2)C(=O)N1CCC(C)(C)C)[C@@H]1CCN(Cc2ccccc2)C1` (stereo partly shown) [Compound 408], the half-maximal inhibitory concentration (IC50) is less than 1000 nM.

As for `CN1CCN(c2ccccc2C2SC(CC(=O)N3CCC(N4CCc5ccccc5NC4=O)CC3)C(=O)N2CC(C)(C)C)CC1` (stereo not shown) [Compound 410], the IC50 is less than 1000 nM.

Consider `CC(C)(C)CCN1C(=O)C(CC(=O)N2CCC(N3CCc4ccccc4NC3=O)CC2)SC1c1cccc(F)c1N1CC(F)(C2CC2)C1` (stereo not shown) [Compound 411], for which the 50% inhibitory concentration (IC50) fell in the range of 1000 to 5000 nM.

As to `CN1CCN(c2cccc(C3SC(CC(=O)N4CCC(N5CCc6ccccc6NC5=O)CC4)C(=O)N3CCC(C)(C)C)c2)CC1` (stereo not shown) [Compound 412], the IC50 is less than 1000 nM.

Consider `CN1CCN(c2cccc(C3SC(CC(=O)N4CCC(n5c(=O)[nH]c6ncccc65)CC4)C(=O)N3CCC(C)(C)C)c2)CC1` (stereo not shown) [Compound 413], for which the IC50 is less than 1000 nM.

Consider `CC(C)(C)CC1SC(CC(=O)N2CCC(n3c(=O)[nH]c4ncccc43)CC2)C(=O)N1c1ccccc1` (stereo not shown) [Compound 417], for which the IC50 was 1000 to 5000 nM.

Regarding `CN(C)C1CCN(c2ccccc2C2SC(CC(=O)N3CCC(n4c(=O)[nH]c5ncccc54)CC3)C(=O)N2CCC(C)(C)C)CC1` (stereo not shown) [Compound 418], the IC50 was more than 5000 nM.

In the case of `CN(C)C1CCN(c2ccccc2C2SC(CC(=O)N3CCC(N4CCc5ccccc5NC4=O)CC3)C(=O)N2CCC(C)(C)C)CC1` (stereo not shown) [Compound 419], the IC50 was 1000 to 5000 nM.

With `O=C(CC1SC(C2CCOCC2)N(c2ccccc2)C1=O)N1CCC(N2CCc3ccccc3NC2=O)CC1` (stereo not shown) [Compound 420], the IC50 was more than 5000 nM.

As to `O=C(CC1SC(C2CCCCC2)N(c2ccc(N3CCOCC3)cc2)C1=O)N1CCC(N2CCc3ccccc3NC2=O)CC1` (stereo not shown) [Compound 421], the 50% inhibitory concentration (IC50) was less than 1000 nM.

As to `O=C(CC1SC(C2CCOCC2)N(c2ccc(N3CCOCC3)cc2)C1=O)N1CCC(N2CCc3ccccc3NC2=O)CC1` (stereo not shown) [Compound 422], the half-maximal inhibitory concentration (IC50) is less than 1000 nM.

Consider `CC(C)(C)CC1SC(CC(=O)N2CCC(N3CCc4ccccc4NC3=O)CC2)C(=O)N1c1ccc(N2CCOCC2)cc1` (stereo not shown) [Compound 423], for which the concentration for half-maximal inhibition (IC50) was less than 1000 nM.

With `O=C(CC1SC(C2CCCCC2)N(c2ccccc2)C1=O)N1CCC(n2c(=O)[nH]c3ncccc32)CC1` (stereo not shown) [Compound 424], the IC50 was less than 1000 nM.

In the case of `O=C(CC1SC(C2CCCCC2)N(c2ccc(N3CCOCC3)cc2)C1=O)N1CCC(n2c(=O)[nH]c3ncccc32)CC1` (stereo not shown) [Compound 425], the IC50 was less than 1000 nM.

Regarding `O=C(CC1SC(C2CCOCC2)N(c2ccc(N3CCOCC3)cc2)C1=O)N1CCC(n2c(=O)[nH]c3ncccc32)CC1` (stereo not shown) [Compound 426], the IC50 is 1000 to 5000 nM.

As for `CC(C)(C)CC1SC(CC(=O)N2CCC(n3c(=O)[nH]c4ncccc43)CC2)C(=O)N1c1ccccc1N1CCCCC1` (stereo not shown) [Compound 428], the IC50 was more than 5000 nM.

With `CC(C)N1CCN(c2c(F)cccc2[C@@H]2S[C@](C)(CC(=O)N3CCC(N4CCc5ccccc5NC4=O)CC3)C(=O)N2CCC(C)(C)C)CC1` [Compound 430], the IC50 was more than 5000 nM.

Consider `CC(C)N1CCN(c2cccc(Cl)c2C2S[C@H](CC(=O)N3CCC(N4CCc5ccccc5NC4=O)CC3)C(=O)N2CCC(C)(C)C)CC1` (stereo partly shown) [Compound 433], for which the concentration for half-maximal inhibition (IC50) was more than 5000 nM.

Regarding `CC(C)N1CCN(c2cccc(Cl)c2C2S[C@@H](CC(=O)N3CCC(n4c(=O)[nH]c5ncccc54)CC3)C(=O)N2CCC(C)(C)C)CC1` (stereo partly shown) [Compound 438], the concentration for half-maximal inhibition (IC50) is less than 1000 nM.

On to `CC(C)(C)CCN1C(=O)[C@H](CC(=O)N2CCC(N3CCc4ccccc4NC3=O)CC2)SC1c1cccc(F)c1N1CCC(N2CCCCC2)CC1` (stereo partly shown) [Compound 439], for which the IC50 was less than 1000 nM.

`CC(C)(C)CCN1C(=O)[C@H](CC(=O)N2CCC(n3c(=O)[nH]c4ncccc43)CC2)S[C@H]1c1cccc(F)c1N1CCC(N2CCCCC2)CC1` [Compound 441]: the half-inhibitory concentration (IC50) was less than 1000 nM.

Take `CC(C)N1CCN(c2ncccc2C2S[C@@H](CC(=O)N3CCC(n4c(=O)[nH]c5ncccc54)CC3)C(=O)N2CCC(C)(C)C)CC1` (stereo partly shown) [Compound 443]: the IC50 was less than 1000 nM.

Turning to `CC(C)N1CCN(c2ncccc2C2S[C@@H](CC(=O)N3CCC(N4CCc5ccccc5NC4=O)CC3)C(=O)N2CCC(C)(C)C)CC1` (stereo partly shown) [Compound 444], the half-maximal inhibitory concentration (IC50) was more than 5000 nM.

Turning to `CC(C)N1CCN(c2c(F)cccc2C2S[C@@](C)(CC(=O)N3CCC(n4c(=O)[nH]c5ncccc54)CC3)C(=O)N2CCC(C)(C)C)CC1` (stereo partly shown) [Compound 445], the concentration for half-maximal inhibition (IC50) was 1000 to 5000 nM.

Consider `CC(C)(C)CCN1C(=O)C(CC(=O)N2CCC(Nc3ccc(Cl)cc3)CC2)SC1c1cccc(F)c1N1CCN(C(C)(C)C)CC1` (stereo not shown) [Compound 448], for which the IC50 is less than 1000 nM.

For the compound `CC(C)(C)CCN1C(=O)[C@H](CC(=O)N2CCC(n3nnc4ccccc43)CC2)SC1c1cccc(F)c1N1CCN(C(C)(C)C)CC1` (stereo partly shown) [Compound 451], the half-inhibitory concentration (IC50) lay in the range of 1000 to 5000 nM.

In the case of `CC(C)(C)CCN1C(=O)[C@H](CC(=O)N2CCC(O)(c3ccc(F)cc3)CC2)S[C@@H]1c1cccc(F)c1N1CCN(C(C)(C)C)CC1` [Compound 453], the IC50 is less than 1000 nM.

For the compound `CC(C)(C)CCN1C(=O)[C@H](CC(=O)N2CCC(O)(c3ccc(F)cc3)CC2)SC1c1cccc(F)c1N1CCN(C(C)(C)C)CC1` (stereo partly shown) [Compound 454], the IC50 was more than 5000 nM.

Turning to `CN(C)C1CCN(c2c(F)cccc2[C@H]2S[C@@H](CC(=O)N3CCC(n4c(=O)[nH]c5ncccc54)CC3)C(=O)N2CCC(C)(C)C)C1` (stereo partly shown) [Compound 455], the IC50 was in the range of 1000 to 5000 nM.

`CC(C)(C)CCN1C(=O)[C@H](CC(=O)N2CCC(n3c(=O)[nH]c4ncccc43)CC2)S[C@H]1c1cccc(F)c1N1CCC(N)C1` (stereo partly shown) [Compound 465]: the IC50 was 1000 to 5000 nM.

As for `CC(C)(C)CCN1C(=O)[C@H](CC(=O)N2CCC(N3CCc4ccccc4NC3=O)CC2)SC1c1cccc(F)c1N1CCC(N)C1` (stereo partly shown) [Compound 466], the concentration for half-maximal inhibition (IC50) was less than 1000 nM.

In the case of `CC(C)(C)CCN1C(=O)[C@H](CC(=O)N2CCC(N3Cc4ccccc4NC3=O)CC2)SC1c1cccc(F)c1N1CCC(N)C1` (stereo partly shown) [Compound 467], the IC50 fell in the range of 1000 to 5000 nM.

Take `CC(C)(C)CCN1C(=O)[C@H](CC(=O)N2CCC(n3c(=O)[nH]c4ncccc43)CC2)S[C@H]1c1cccc(F)c1N1CCC(O)C1` (stereo partly shown) [Compound 468]: the IC50 was less than 1000 nM.

For `CC(C)(C)CCN1C(=O)[C@H](CC(=O)N2CCC(N3Cc4ccccc4NC3=O)CC2)S[C@H]1c1cccc(F)c1N1CCC(N)C1` (stereo partly shown) [Compound 472], the half-maximal inhibitory concentration (IC50) was less than 1000 nM.

Consider `C[C@@H]1CN(c2c(F)cccc2[C@@H]2S[C@@H](CC(=O)N3CCC(N4CCc5ccccc5NC4=O)CC3)C(=O)N2CCC(C)(C)C)C[C@H](C)N1` [Compound 476], for which the IC50 was more than 5000 nM.

For `CCCN1C(=O)[C@H](CC(=O)N2CCC(N3CCc4ccccc4NC3=O)CC2)SC1c1cccc(F)c1N1CCN(C(C)(C)C)CC1` (stereo partly shown) [Compound 536], the 50% inhibitory concentration (IC50) is less than 1000 nM.

Consider `CCCN1C(=O)[C@H](CC(=O)N2CCC(N3CCc4ccccc4NC3=O)CC2)SC1c1cccc(F)c1N1CCN(C(C)(C)C)CC1` (stereo partly shown) [Compound 537], for which the 50% inhibitory concentration (IC50) is less than 1000 nM.

For `CC(C)(C)CCN1C(=O)[C@H](CC(=O)N2CCC(n3c(=O)[nH]c4ncccc43)CC2)S[C@H]1c1cccc(F)c1N1CCNCC1` [Compound 546], the IC50 is less than 1000 nM.
